Tests used:
[1] = UV absorption, specific extinction in DMSO by spectrophotometer; type: physicochemical; details: 1% by weight, 1 cm cuvette
Protocol: A scytonemin sample obtained according to Example 1 was dissolved in DMSO (dimethylsulfoxide) to a concentration of 1% by weight and subsequently, with a spectrophotometer used according to the standard procedures (manufacturer: Varian, model: CARY 100 Scan) absorbance was measured for two wavelengths (305 and 393 nm) in a cuvette with 1 cm thickness.

[2] = Degree of scytonemin dispersion in selected solutions used in cosmetics; type: physicochemical; details: for dispersion level: shaker 1 min, ultrasonic bath 10 min
Protocol: 0.5 mg scytonemin was weighed out on an analytical balance and suspended in 1 g of the solution: • 1) Propylene glycol (INCI: Propylene Glycol) • 2) Refined apricot oil (INCI: Prunus Armeniaca (Apricot) Kernel Oil) • 3) Glycerin (INCI: Glycerin) • 4) Isohexadecane (INCI: Isohexadecane) • 5) 2-octyldodecan-1-ol ODD (INCI: Octyldodecanol) • 6) SLP Emulsifier (INCI: Sorbitan Laurate/Polyglyceryl-4 Laurate/Dilauryl Citrate)
Subsequently, the sample was mixed using a shaker for approx. 1 min and maintained for 10 min in an ultrasonic bath to achieve a higher dispersion level.
0.5 mg of scytonemin was weighed out on an analytical balance and suspended in 5 g of the composition: • 7) glycerin+glycerol stearate+water+silica+alcohol
The sample was stirred for 5 min using a laboratory stirrer

[3] = Storage stability in room conditions, absorbance spectra before and after; type: physicochemical; details: 25° C., 10 months
Protocol: The compound prepared in Example 1 was stored in room conditions (temp. 25° C.) for 10 months. Absorbance spectra before and after the storage test are identical, which confirms stability of the compound. […] The crystalline form of scytonemin of the invention is stable.

[4] = cited from earlier work
[5] = Thermogravimetric/differential thermal analysis (TG/DTA), thermal decomposition; type: physicochemical; details: argon, heating 15 ° C./minute, 3.7 mg
Protocol: 3.7 mg of the sample was weighed out into an alumina crucible and 34.6 mg of pure gold wire (99.999%) was added to balance the rod weight with the microbalance counterweight.
• Argon flow at 2 atm • Sample weight: 3.7 mg • Crucible: 100 μL Al2O3 • Reference crucible: Al2O3 • Temperature ramp:
Weight losses in successive stages were calculated based on the thermogravimetric curve, and the presence of exothermic and endothermic processes during sample heating were determined from the heat flow curve.

Substance: scytonemin
- Specific extinction/1% at 305 nm ([1]; 305 nm): 330
- Specific extinction/1% to 393 nm ([1]; 393 nm): 730
- dispersion level ([2]; 0.5 mg in 1 g 2-octyldodecan-1-ol ODD (solution 5)): Relatively high dispersion level
- dispersion level ([2]; 0.5 mg in 1 g SLP Emulsifier (solution 6)): Low dispersion level
- dispersion level ([2]; 0.5 mg in 1 g glycerin (solution 3)): Low dispersion level
- dispersion level ([2]; 0.5 mg in 1 g isohexadecane (solution 4)): High dispersion level
- dispersion level ([2]; 0.5 mg in 1 g propylene glycol (solution 1)): High dispersion level
- dispersion level ([2]; 0.5 mg in 1 g refined apricot oil (solution 2)): Very low dispersion level
- dispersion / dissolution in raw material base ([2]; 0.5 mg in 5 g glycerin+glycerol stearate+water+silica+alcohol (composition 7), stirred 5 min): did not dissolve but disintegrated into smaller particles
- absorbance spectra before and after the storage test [3]: identical
- characteristic absorbance spectra after continuous UVA irradiation ([4]; 2 months, UVA 5 W/m2): practically unchanged
- characteristic absorbance spectra after heating ([4]; heating to 60° C. for 2 months): practically unchanged
- Maximum of weight loss (decomposition maximum) [5]: 380.3 °C
- T range of decomposition [5]: 365.4-380.3 °C
